# Data as given in patent US7045516B1, “Benzoxazole derivatives and drugs containing the same as the active ingredient” (Koichi Shudo, priority 1998, dated 2006).
# Target: T1, 5-HT3 receptor (Cavia porcellus, UniProt O70212)
# T1 construct: From ileum of Hartley male guinea pigs (500 g to 800 g) longitudinal muscle samples of about 20 mm were prepared; from tissue; host or cells: guinea pig ileum longitudinal muscle
# T1 sequence (O70212 20-490): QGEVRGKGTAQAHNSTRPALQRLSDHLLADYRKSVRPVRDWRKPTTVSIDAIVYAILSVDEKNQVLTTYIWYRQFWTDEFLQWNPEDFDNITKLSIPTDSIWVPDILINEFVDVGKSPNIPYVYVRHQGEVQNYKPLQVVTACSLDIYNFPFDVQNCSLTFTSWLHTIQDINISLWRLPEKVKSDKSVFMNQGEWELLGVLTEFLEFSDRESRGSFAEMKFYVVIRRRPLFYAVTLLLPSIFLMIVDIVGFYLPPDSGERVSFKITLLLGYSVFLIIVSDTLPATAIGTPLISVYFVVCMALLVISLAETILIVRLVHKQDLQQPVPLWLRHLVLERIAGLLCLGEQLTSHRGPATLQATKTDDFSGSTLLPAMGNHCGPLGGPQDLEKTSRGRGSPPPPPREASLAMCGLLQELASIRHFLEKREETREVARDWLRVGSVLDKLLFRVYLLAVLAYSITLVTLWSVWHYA
# Experiment: Test for 5-HT3 receptor activating action and antagonism, guinea pig ileum longitudinal muscle contraction
# Type: cell-based
# Details: inhibitory ratio of contraction by 10 μM 5-HT in sample treated beforehand with 10 μM compound; guinea pig ileum longitudinal muscle
# Procedure: From ileum of Hartley male guinea pigs (500 g to 800 g) longitudinal muscle samples of about 20 mm were prepared. The samples were suspended at a resting tension of about 0.5 g in Magnus tubes, and isometric contraction reaction was measured. The samples were treated beforehand twice with 0.3 μM of 5-HT for 1 hour to desensitize the 5-HT4 receptors, and then given with 5-HT at a concentration of 0.1 to 30 μM to examine dose-dependent contraction reaction via the 5-HT3 receptors. […] The index of the 5-HT3 receptor activating action, i.a., is represented as a ratio of the maximum reaction obtained by each compound relative to the maximum contraction reaction obtained with 10 μM of 5-HT, which is defined to be 1. The index of strength of binding with the 5-HT3 receptor, pD2, is represented with a negative logarithmic value of a concentration (molar concentration) that gave 50% maximum contraction reaction for each compound. As for the antagonistic activity of each compound against the 5-HT3 receptor, inhibitory ratio was calculated, which represents a ratio of contraction obtained by applying 10 μM of 5-HT to a sample treated beforehand with 10 μM of each compound relative to the contraction obtained by applying 10 μM of 5-HT to an untreated sample.
row,Structure (SMILES),inhibition at 10 µM
1,"Cc1cc2oc(N3CCCNCC3)nc2cc1Cl [Example 3, 5-Chloro-2-(1-homopiperazinyl)-6-methylbenzoxazole]",88%
2,"Cc1cc(Cl)cc2nc(N3CCCNCC3)oc12 [Example 1 (a), 5-Chloro-2-(1-homopiperazinyl)-7-methylbenzoxazole]",95%
3,"Cc1cc(C)c2oc(N3CCNCC3)nc2c1 [C, 5,7-dimethyl-2-(1-piperazinyl)benzoxazole, reference compound]",91%
4,"Cc1c(Cl)cc2nc(N3CCCNCC3)oc2c1C [Example 11, 5-Chloro-2-(1-homopiperazinyl)-6,7-dimethylbenzoxazole]",89%
5,"CC(C)(C)OC(=O)Nc1cc(Cl)cc2nc(N3CCCNCC3)oc12 [Example 7, 7-(tert-Butyloxycarbonylamino)-5-chloro-2-(1-homopiperazinyl)benzoxazole]",83%

# The next lines start with the values.
row,inhibition at 10 µM,Structure (SMILES)
1,98%,"Cc1cc(Cl)cc2nc(N3CCCN(C)CC3)oc12 [E, 5-chloro-7-methyl-2-(4-methyl-1-homopiperazinyl) benzoxazole, reference compound]"
2,15%,"CC(C)C(=O)Nc1cc(Cl)cc2nc(N3CCCNCC3)oc12.Cl [Example 16, 5-Chloro-7-isobutyrylamino-2-(1-homopiperazinyl) benzoxazole hydrochloride]"
3,90%,"CC(=O)Nc1cc(Cl)cc2nc(N3CCCNCC3)oc12 [Example 6, 7-Acetamino-5-chloro-2-(1-homopiperazinyl)benzoxazole]"
4,97%,"Clc1cc(Cl)c2oc(N3CCCNCC3)nc2c1 [Example 9, 5,7-Dichloro-2-(1-homopiperazinyl) benzoxazole]"
5,83%,"Cl.Nc1cc(Cl)cc2nc(N3CCCNCC3)oc12 [Example 8, 7-Amino-5-chloro-2-(1-homopiperazinyl) benzoxazole hydrochloride]"

# Same assay, conditions: negative logarithm of molar concentration giving 50% maximum contraction; read-out: Activating action pD2 (converted)
row,Structure (SMILES),EC50
1,"Cc1cc(C)c2oc(N3CCN(C)CC3)nc2c1 [B, 5,7-dimethyl-2-(4-methyl-1-piperazinyl) benzoxazole, reference compound]",479 nM
2,"Cc1cc2oc(N3CCCNCC3)nc2cc1Cl [Example 3, 5-Chloro-2-(1-homopiperazinyl)-6-methylbenzoxazole]",191 nM
3,"c1ccc2oc(N3CCCNCC3)nc2c1 [A, 2-(1-homopiperazinyl)benzoxazole, reference compound]",1700 nM
4,"Cc1cc(Cl)cc2nc(N3CCCNCC3)oc12 [Example 1 (a), 5-Chloro-2-(1-homopiperazinyl)-7-methylbenzoxazole]",33.1 nM
5,"Cc1cc(C)c2oc(N3CCNCC3)nc2c1 [C, 5,7-dimethyl-2-(1-piperazinyl)benzoxazole, reference compound]",70.8 nM
6,"Cc1c(Cl)cc2nc(N3CCCNCC3)oc2c1C [Example 11, 5-Chloro-2-(1-homopiperazinyl)-6,7-dimethylbenzoxazole]",35.5 nM
7,"CC(C)(C)OC(=O)Nc1cc(Cl)cc2nc(N3CCCNCC3)oc12 [Example 7, 7-(tert-Butyloxycarbonylamino)-5-chloro-2-(1-homopiperazinyl)benzoxazole]",2000 nM

# Now from value to compound:
row,EC50,Structure (SMILES)
1,21.4 nM,"Cc1cc(Cl)cc2nc(N3CCCN(C)CC3)oc12 [E, 5-chloro-7-methyl-2-(4-methyl-1-homopiperazinyl) benzoxazole, reference compound]"
2,5620 nM,"CC(C)C(=O)Nc1cc(Cl)cc2nc(N3CCCNCC3)oc12.Cl [Example 16, 5-Chloro-7-isobutyrylamino-2-(1-homopiperazinyl) benzoxazole hydrochloride]"
3,3980 nM,"CC(=O)Nc1cc(Cl)cc2nc(N3CCCNCC3)oc12 [Example 6, 7-Acetamino-5-chloro-2-(1-homopiperazinyl)benzoxazole]"
4,56.2 nM,"Clc1cc(Cl)c2oc(N3CCCNCC3)nc2c1 [Example 9, 5,7-Dichloro-2-(1-homopiperazinyl) benzoxazole]"
5,437 nM,"Cl.Nc1cc(Cl)cc2nc(N3CCCNCC3)oc12 [Example 8, 7-Amino-5-chloro-2-(1-homopiperazinyl) benzoxazole hydrochloride]"

# Same assay, conditions: ratio of maximum contraction by compound relative to maximum contraction with 10 μM 5-HT (defined as 1)
row,Structure (SMILES),Activating action i.a.
1,"Cc1cc(C)c2oc(N3CCN(C)CC3)nc2c1 [B, 5,7-dimethyl-2-(4-methyl-1-piperazinyl) benzoxazole, reference compound]",0.62
2,"Cc1cc2oc(N3CCCNCC3)nc2cc1Cl [Example 3, 5-Chloro-2-(1-homopiperazinyl)-6-methylbenzoxazole]",0.08
3,"c1ccc2oc(N3CCCNCC3)nc2c1 [A, 2-(1-homopiperazinyl)benzoxazole, reference compound]",0.32
4,"Cc1cc(Cl)cc2nc(N3CCCNCC3)oc12 [Example 1 (a), 5-Chloro-2-(1-homopiperazinyl)-7-methylbenzoxazole]",0.12
5,"Cc1cc(C)c2oc(N3CCNCC3)nc2c1 [C, 5,7-dimethyl-2-(1-piperazinyl)benzoxazole, reference compound]",0.12
6,"Cc1c(Cl)cc2nc(N3CCCNCC3)oc2c1C [Example 11, 5-Chloro-2-(1-homopiperazinyl)-6,7-dimethylbenzoxazole]",0.14
7,"CC(C)(C)OC(=O)Nc1cc(Cl)cc2nc(N3CCCNCC3)oc12 [Example 7, 7-(tert-Butyloxycarbonylamino)-5-chloro-2-(1-homopiperazinyl)benzoxazole]",0.31

# The remaining lines, values ahead:
row,Activating action i.a.,Structure (SMILES)
1,0.17,"Cc1cc(Cl)cc2nc(N3CCCN(C)CC3)oc12 [E, 5-chloro-7-methyl-2-(4-methyl-1-homopiperazinyl) benzoxazole, reference compound]"
2,0.10,"CC(C)C(=O)Nc1cc(Cl)cc2nc(N3CCCNCC3)oc12.Cl [Example 16, 5-Chloro-7-isobutyrylamino-2-(1-homopiperazinyl) benzoxazole hydrochloride]"
3,0.35,"CC(=O)Nc1cc(Cl)cc2nc(N3CCCNCC3)oc12 [Example 6, 7-Acetamino-5-chloro-2-(1-homopiperazinyl)benzoxazole]"
4,0.13,"Clc1cc(Cl)c2oc(N3CCCNCC3)nc2c1 [Example 9, 5,7-Dichloro-2-(1-homopiperazinyl) benzoxazole]"
5,0.55,"Cl.Nc1cc(Cl)cc2nc(N3CCCNCC3)oc12 [Example 8, 7-Amino-5-chloro-2-(1-homopiperazinyl) benzoxazole hydrochloride]"
